Laboratory results from ChEMBL document CHEMBL1781901, “Toluidinesulfonamide hypoxia-induced factor 1 inhibitors: alleviating drug-drug interactions through use of PubChem data and comparative molecular field analysis guided synthesis” (J Med Chem, 2011).

Key:
[1] = Inhibition of HIF-1 in human deferoxamine treated HCT-116 cells expressing HRE-bla gene pretreated for 30 mins before deferoxamine challenge measured after 24 hrs by fluorometric analysis; format: cell-based
Cytochrome P450 2C9 = Cytochrome P450 2C9 (Homo sapiens, UniProt P11712); assay: Inhibition of CYP2C9 after 30 mins by luminescence assay; format: ADME
Sequence of Cytochrome P450 2C9 (P11712 whole entry): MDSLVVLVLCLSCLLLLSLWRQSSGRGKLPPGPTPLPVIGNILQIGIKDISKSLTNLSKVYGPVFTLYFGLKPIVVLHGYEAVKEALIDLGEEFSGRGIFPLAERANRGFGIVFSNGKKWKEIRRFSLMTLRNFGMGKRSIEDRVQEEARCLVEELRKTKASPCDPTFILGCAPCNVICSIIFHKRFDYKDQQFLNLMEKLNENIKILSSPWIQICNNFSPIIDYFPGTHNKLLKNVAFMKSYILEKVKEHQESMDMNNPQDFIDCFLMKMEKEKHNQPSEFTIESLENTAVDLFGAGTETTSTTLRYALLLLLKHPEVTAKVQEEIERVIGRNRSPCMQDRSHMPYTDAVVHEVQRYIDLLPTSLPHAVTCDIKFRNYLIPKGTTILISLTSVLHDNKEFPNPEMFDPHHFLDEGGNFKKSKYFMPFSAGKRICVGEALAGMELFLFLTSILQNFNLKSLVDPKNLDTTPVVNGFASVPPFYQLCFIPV

pIC50 [1] | EC50 (Cytochrome P450 2C9) [µM] | SMILES
4.7 | 0.251 | COC(=O)c1ccc(C)c(NS(=O)(=O)c2ccc(NC(C)=O)cc2)c1
7.2 | 3.98 | COC(=O)c1ccc(C)c(NS(=O)(=O)c2ccc(OC)cc2)c1
< 5 | 2.51 | COC(=O)c1ccc(C)c(NS(=O)(=O)c2ccc(OC)c(OC)c2)c1
5.5 | 39.8 | COC(=O)c1ccc(OC)c(NS(=O)(=O)c2ccc(OC)cc2)c1
5.8 | 15.8 | COC(=O)c1ccc(C)c(N(C)S(=O)(=O)c2ccc(C)cc2)c1
6.2 | 25.1 | COC(=O)c1ccc(C)c(N(C)S(=O)(=O)c2ccc(OC)cc2)c1
7 | 3.98 | COC(=O)c1ccc2c(c1)N(S(=O)(=O)c1ccc(C)cc1)CCO2
7.4 | 1.58 | COC(=O)c1ccc(C)c(NS(=O)(=O)c2ccc(C)cc2)c1
